Reference: ChEMBL document CHEMBL4840371 (Bioorg Med Chem, 2021)

Legend:
[1] = Inhibition of Escherichia coli recombinant his-tagged DHDPS using (S)-aspartate-semialdehyde as a substrate preincubated for 12 mins followed by substrate addition by UV-Vis spectrophotometer based coupled DHDPS-DHDPR assay
[2] = tested on: HEK293; experiment: Cytotoxicity against HEK293 cells assessed as reduction in cell viability measured after 48 hrs by MTT assay; format: cell-based; conditions: Homo sapiens, HEK293, 48 h
[3] = tested on: HepG2; experiment: Cytotoxicity against human HepG2 cells assessed as reduction in cell viability measured after 48 hrs by MTT assay; format: cell-based; conditions: HepG2, 48 h
[4] = Aqueous solubility of the compound; format: physicochemical; conditions: buffer
[5] = Inhibition of Campylobacter jejuni DHDPS using ASA as a substrate in presence of NADPH by DHDPS-DHDPR coupled assay

| SMILES | IC50 [1] [µM] | also measured |
| --- | --- | --- |
| CCOC(=O)CSC1=NC(=O)/C(=C/c2ccc(OC)cc2)S1 |  | solubility [4]: Insoluble |
| O=C(O)CN1C(=O)S/C(=C\c2cccnc2)C1=O | 138 |  |
| COc1ccc(/C=C2\SC(=S)N(CC(=O)O)C2=O)cc1 | 540 | EC50 [2]: 200 µM; EC50 [3]: 200 µM |
| COc1cccc(/C=C2\SC(=O)N(CC(=O)O)C2=O)c1 | 110 |  |
| COc1ccc(/C=C2\NC(=S)NC2=O)cc1 | 323 |  |
| COc1ccc(/C=C2\SC(=S)NC2=O)cc1 | > 500 |  |
| CN(C)c1ccc(/C=C2\SC(=O)N(CC(=O)O)C2=O)cc1 | > 500 |  |
| COc1ccc(/C=C2\NC(=O)NC2=O)cc1 | 124 |  |
| COc1ccc(/C=C2\SC(=O)N(CC(N)=O)C2=O)cc1 |  | solubility ([4]; read-out: solubility): < 31 µM |
| NCCCC[C@@](N)(CC[C@](N)(CCCCN)C(=O)O)C(=O)O |  | Ki [5]: 0.14 µM |
| COc1ccc(/C=C2\SC(=O)N(CC(=O)O)C2=O)cc1OC | 116 |  |
| O=C(O)CN1C(=O)S/C(=C\c2ccccc2Cl)C1=O | 137 |  |
| O=C(O)CN1C(=O)S/C(=C\c2cccc3ccccc23)C1=O | 97 | EC50 [2]: > 500 µM; EC50 [3]: > 500 µM |
| COc1ccc(/C=C2\SC(=O)N(CC#N)C2=O)cc1 |  | solubility ([4]; read-out: solubility): < 250 µM |
| O=C(O)CN1C(=O)S/C(=C\c2ccc(F)cc2)C1=O | 92 |  |
| O=C(O)CN1C(=O)S/C(=C\c2ccc(OC(F)(F)F)cc2)C1=O | 98 |  |
| O=C(O)CN1C(=O)S/C(=C\c2ccc(O)cc2O)C1=O | 162 |  |

| SMILES | IC50 [1] [µM] | also measured |
| --- | --- | --- |
| COc1ccc(CC2SC(=O)N(CC(=O)O)C2=O)cc1 (stereo not given) | > 500 |  |
| O=C(O)CN1C(=O)S/C(=C\c2c[nH]cn2)C1=O | 94 |  |
| COc1ccc(/C=C2\SC(=O)N(Cc3nnn[nH]3)C2=O)cc1 | 89 |  |
| CSc1ccc(/C=C2\SC(=O)N(CC(=O)O)C2=O)cc1 | 125 |  |
| O=C(O)CN1C(=O)S/C(=C\c2ccc(O)c(Cl)c2)C1=O | 316 |  |
| O=C(O)CN1C(=O)S/C(=C\c2ccncc2)C1=O | 90 |  |
| O=C(O)CN1C(=O)S/C(=C\c2ccc3ccccc3n2)C1=O | 110 |  |
| O=C(O)CN1C(=O)S/C(=C\c2ccc(C(F)(F)F)cc2)C1=O | 122 |  |
| COc1ccc(/C=C2\SC(=O)N(CCC(=O)O)C2=O)cc1 | > 250 |  |
| O=C(O)CN1C(=O)S/C(=C\c2ccc(O)cc2)C1=O | 103 |  |
| O=C(O)CN1C(=O)S/C(=C\c2cccc(Cl)c2)C1=O | 121 |  |
| COc1cccc(/C=C2\SC(=O)N(CC(=O)O)C2=O)c1OC | 108 |  |
| Nc1ccc(/C=C2\SC(=O)N(CC(=O)O)C2=O)cc1 | 153 |  |
| COc1ccc(/C=C2\NC(=S)N(CC(=O)O)C2=O)cc1 | 222 | EC50 [2]: > 500 µM; EC50 [3]: > 500 µM |
| O=C(O)CN1C(=O)S/C(=C\c2ccc(Cl)cc2)C1=O | 84 |  |
| O=C(O)CN1C(=O)S/C(=C\c2ccsc2)C1=O | 87 | EC50 [2]: > 500 µM; EC50 [3]: > 500 µM |
| COc1ccc(/C=C2\SC(=N)NC2=O)cc1 | 156 |  |

Further compounds by falling IC50 [1], results first:

| IC50 [1] [µM] | SMILES | also measured |
| --- | --- | --- |
| 80 | Cc1ccc(/C=C2\SC(=O)N(CC(=O)O)C2=O)cc1 |  |
| 80 | O=C(O)CN1C(=O)S/C(=C\c2ccccn2)C1=O |  |
| 80 | O=C(O)CN1C(=O)S/C(=C\c2ccccc2)C1=O |  |
| 80 | N#Cc1ccc(/C=C2\SC(=O)N(CC(=O)O)C2=O)cc1 |  |
| 76 | O=C(O)CN1C(=O)S/C(=C\c2ccc3ccccc3c2)C1=O | EC50 [2]: 200 µM; EC50 [3]: 200 µM |
| 74 | O=C(O)CN1C(=O)S/C(=C\c2ccc(Br)cc2)C1=O |  |
| 72 | CCOc1ccc(/C=C2\SC(=O)N(CC(=O)O)C2=O)cc1 |  |
| 72 | O=C(O)CN1C(=O)S/C(=C\c2cccs2)C1=O | EC50 [2]: > 500 µM; EC50 [3]: > 500 µM |
| 71 | O=C(O)CN1C(=O)S/C(=C\c2ccc(OCc3ccccc3)cc2)C1=O | EC50 [2]: 200 µM; EC50 [3]: 200 µM |
| 71 | COc1ccccc1/C=C1\SC(=O)N(CC(=O)O)C1=O |  |
| 71 | COc1ccc(/C=C2\SC(=O)NC2=O)cc1 | EC50 [2]: 172 µM; EC50 [3]: 200 µM |
| 70 | O=C(O)CN1C(=O)S/C(=C\c2ccc(C(=O)O)cc2)C1=O |  |
| 68 | CC(=O)Nc1ccc(/C=C2\SC(=O)N(CC(=O)O)C2=O)cc1 |  |
| 67 | COc1ccc(/C=C2\SC(=O)N(CCCC(=O)O)C2=O)cc1 |  |
| 66 | COc1ccc(/C=C2\NC(=O)N(CC(=O)O)C2=O)cc1 | EC50 [2]: > 500 µM; EC50 [3]: > 500 µM |
| 59 | O=C(O)CN1C(=O)S/C(=C\c2ccc(=O)[nH]c2)C1=O |  |
| 47 | COc1ccc(/C=C2\SC(=O)N(CC(=O)O)C2=O)cc1 | EC50 [2]: > 500 µM; EC50 [3]: > 500 µM |
| 46 | COc1ccc(/C=C2\SC(=O)N(CC(=O)O)C2=O)cn1 | EC50 [2]: > 500 µM; EC50 [3]: > 500 µM |
| 39 | COc1ccc(C=C2SC(=O)N(CC(=O)O)C2=O)cc1 (mixture of isomers) |  |
